Results from US20250042884A1, “3-ARYLOXYL-3-FIVE-MEMBERED HETEROARYL PROPYLAMINE COMPOUND AND USE THEREOF” (Shanghai Leado Pharmatech Co. Ltd., priority 2018, published 2025).

Experiments:
TRPA1 = TRPA1 (Mus musculus (Mouse), UniProt Q8BLA8); assay: IonWorks Barracuda (IWB) automated patch clamp detection of TRPA1 inhibitory activity; assay type: cell-based; details: HEK293 cells stably expressing TRPA1; current induced by AITC; read-out: IC50 (μM), inhibitory activity on TRPA1 in the automated patch clamp detection test
TRPA1, sequence (Q8BLA8 whole entry): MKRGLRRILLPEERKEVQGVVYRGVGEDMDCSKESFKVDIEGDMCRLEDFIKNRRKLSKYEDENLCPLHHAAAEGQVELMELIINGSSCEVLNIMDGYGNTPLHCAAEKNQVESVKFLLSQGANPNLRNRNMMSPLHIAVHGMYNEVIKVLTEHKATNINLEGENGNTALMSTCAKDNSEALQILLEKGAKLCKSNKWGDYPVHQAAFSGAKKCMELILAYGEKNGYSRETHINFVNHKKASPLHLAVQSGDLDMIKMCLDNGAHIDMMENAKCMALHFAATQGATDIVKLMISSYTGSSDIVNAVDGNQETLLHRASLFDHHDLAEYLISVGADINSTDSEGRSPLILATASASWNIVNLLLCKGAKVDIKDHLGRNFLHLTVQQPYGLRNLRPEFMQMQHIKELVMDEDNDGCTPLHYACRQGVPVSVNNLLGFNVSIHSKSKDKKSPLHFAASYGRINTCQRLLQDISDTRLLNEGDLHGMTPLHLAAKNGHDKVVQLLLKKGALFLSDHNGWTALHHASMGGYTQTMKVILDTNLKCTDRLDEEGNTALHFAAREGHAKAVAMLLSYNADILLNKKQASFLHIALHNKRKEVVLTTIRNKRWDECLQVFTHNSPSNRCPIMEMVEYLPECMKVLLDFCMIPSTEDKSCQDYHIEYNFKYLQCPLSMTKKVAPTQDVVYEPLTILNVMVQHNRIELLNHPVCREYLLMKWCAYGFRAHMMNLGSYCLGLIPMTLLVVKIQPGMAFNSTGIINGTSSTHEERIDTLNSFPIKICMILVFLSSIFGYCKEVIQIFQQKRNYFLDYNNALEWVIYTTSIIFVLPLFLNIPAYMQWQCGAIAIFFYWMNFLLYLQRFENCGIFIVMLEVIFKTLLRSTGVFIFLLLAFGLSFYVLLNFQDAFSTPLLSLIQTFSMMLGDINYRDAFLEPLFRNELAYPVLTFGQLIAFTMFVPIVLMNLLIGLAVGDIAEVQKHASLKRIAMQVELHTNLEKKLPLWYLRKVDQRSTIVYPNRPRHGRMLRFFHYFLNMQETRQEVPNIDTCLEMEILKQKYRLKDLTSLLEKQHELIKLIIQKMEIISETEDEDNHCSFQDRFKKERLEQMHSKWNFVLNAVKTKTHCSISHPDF
Method: The inhibitory activity of some compounds in the examples of the present invention (as shown in Table 1) on transient receptor potential channel protein TRPA1 was tested in this example. The compound of formula A (WO2010075353) was used as a positive control compound: […]
Ion Works Barracuda (IWB) automated patch clamp detection was used as test method: HEK293 cells stably expressing TRPA1 were placed in DMEM medium containing 15 μg/mL Blasticidin S HCl, 200 μg/mL Hygromycin B and 10% FBS in the T175 culture flask, and cultured in 37° C., 5% CO2 incubator. When the cell density reached about 80%, the culture medium was removed, rinsed with phosphate buffered saline (PBS) without calcium and magnesium. 3 mL of Trypsin was added to digest for 2 min, 7 mL of culture medium was added to terminate the digestion. The cells were collected to 15 mL centrifuge tube and centrifuged at 800 rpm for 3 min. After the supernatant was removed, the cells were added to appropriate volume of extracellular fluid for re-suspending, and the cell density was controlled at 2-3×10^6/mL for IWB experiment. Extracellular fluid formulation (in mM): 140 NaCl, 5 KCl, 1 MgCl2, 10 HEPES, 0.5 EGTA, 10 Glucose (pH 7.4); intracellular fluid formulation (in mM): 140 CsCl, 10 HEPES, 5 EGTA, 0.1 CaCl2, 1 MgCl2 (pH 7.2). 28 mg/mL of amphotericin B was freshly prepared with DMSO on the day of experiment, and then final concentration of 0.1 mg/mL was prepared with intracellular fluid.
Population patch clamp (PPC) plate was used in IWB experiment. The entire detection process was automatically carried out by the instrument. Extracellular fluid was added into 384 wells of PPC plate, and 6 µL of the intracellular fluid was added into plenum (under the PPC plate), 6 µL of cell fluid was added for sealing test, and finally the intracellular fluid in plenum was replaced with amphotericin B-containing intracellular fluid to establish a whole-cell recording mode after perforating sealed cells. The sampling frequency for recording TPRA1 current was 10 kHz, the cells were clamped at 0 mV, the voltage stimulation command (channel protocol) was a ramp voltage from −100 mV to +100 mV for 300 ms. This voltage stimulation was applied every 10 s, mTRPA1current was induced by 300 µM AITC.
Data recording and current amplitude measurement export were carried out by IWB software (version 2.5.3, Molecular Devices Corporation, Union City, CA). No statistics was recorded for holes with sealing impedance lower than 20 MQΩ. The original current data was corrected by software for leakage reduction. TRPA1 current amplitude was measured at +100 mV. […] If IC50 value of HC030031 exceeded 3 times the average IC50 value previously obtained on each plate, it would be re-tested. The dose-effect curve of compounds and IC50 were fitted and calculated by GraphPad Prism 5.02 (GraphPad Software, San Diego, CA).
Some compounds in the examples of the present invention were detected by lonWorks Barracuda (IWB) automated patch clamp detection method for IC50 inhibitory activity.

ICR mice = assay: Mice acetic acid writhing pain model (visceral and inflammatory pain); assay type: in vivo; details: 10 mg/kg by gavage, 1 h before acetic acid; saline group 49 times
Method: Male ICR mice, 22-25 g, were fasted but allowed to drink water freely for 2 h before administration. All ICR mice were weighed and grouped randomly, each group had >10 animals. […] The drug was administrated by gavage based on the weight of mice. 1.5% acetic acid solution (0.1 ml/10 g) was injected intraperitoneally 1 h after administration, and the number of times of visceral pain in each group was observed within 30 min. When concave abdomen, stretched trunk and hind claw, and high buttocks appeared, one number point was recorded. Finally, the number of appearance of the above phenomenon was counted within 30 minutes.

SD rats = assay: Rat SNL model, mechanical allodynia test (nerve pain); assay type: in vivo; details: 1 h after administration, 100 mg/kg oral; control group 3.967 ± 0.775
Method: Male SPF grade SD rats, weighed 150 g-180 g, were selected. Aseptic operation during surgery was performed. The animals were anesthetized with sodium pentobarbital (50 mg/kg, intraperitoneal injection). The surgical area of animal waist was shaved and the skin was disinfected three times with iodophor and 70% ethanol. After the skin was dried, the operation was started. Surgical knife was used to make a longitudinal incision at the back of the sacrum of the animal waist to expose the left paraspinal muscles, and stretcher was used to separate muscle tissue to expose the spine. The left spinal nerves L5 and L6 were separated and ligated with a 6-0 silk thread, and the wound was sutured. After the operation, the animals were placed on electrothermal pad, and 5 mL of saline was injected subcutaneously to prevent dehydration. After the animals were fully awakened and could move around freely, the animals were put back in the cage.
After the operation, the animals were adapted in the experimental environment for 15min/day for 3 days.
The animals were weighed to calculate the dose. […] After administration, mechanical allodynia test was performed. The rat was individually placed in a plexiglass box with a grid on the bottom of the box to ensure that the rat claw could be tested. The rats were allowed to adapt the environment for 15 min before test. After the adaptation was completed, the test fiber was used to test the center of the left hind claw of the rat. The test fiber comprises 8 test strengths: 3.61 (0.4 g), 3.84 (0.6 g), 4.08 (1 g), 4.31 (2 g), 4.56 (4 g), 4.74 (6 g), 4.93 (8 g), and 5.18 (15 g). […] During the test, rapid withdrawal of animal claw was recorded as pain response. When the test fiber was removed from animal skin, the withdrawal of animal claw was also recorded as pain response. If animal moved, the pain response was not recorded, and the test was repeated. […]
Mechanical allodynia was expressed as withdrawal threshold (PWT) in rat behavioral test, which was calculated with the following formula: […]

Sprague-Dawley rats = assay: Rat hot plate pain model (acute pain); assay type: in vivo
Method: Sprague-Dawley male, mature and unmated rats were placed at hot and cold plate (product model: PE34, US IITC) with constant 53±0.1° C. Mice with painful response such as licking claw, shaking claw or slightly jumping within 10-30 s were selected, and mice which evaded and jumped were abandoned. […] The test compound was freshly prepared on the day of administration. 0.9% NaCl physiological saline solution was prepared as solvent for later use. Appropriate amount of test compound was added into required volume of physiological saline and fully suspended, and the concentration of prepared drug was 1 mg/ml. […] After administration, the latency of heat pain was measured at 0.5 h, 1 h and 2 h after administration. In order to prevent animals from being scalded on the hot plate, the maximum incubation time was set to 30 s. Maximum possible effect (MPE) % was used to evaluate analgesic effect of each compound, i.e., MPE %=[(Post drug latency−baseline latency)/(30−baseline latency)]×100. MPE % at different time points was recorded.

C57BL/6 mice = assay: Mice formalin pain model (acute and inflammatory pain); assay type: in vivo; details: hydrochloride salt, blank vehicle 349.55 ± 43.09
Description: 150 C57BL/6 mice (male, 9-week aged) were randomly divided into 15 groups, (each group had 10 mice) for the analgesic activity test of 3 compounds in the mice formalin pain model respectively: the compound I-1 group (compound I-1 prepared in Example 2 whose hydrochloride salt was used in the experiment), the S-duloxetine group (its hydrochloride salt was used in the experiment) and the compound C1 group (the compound C1 prepared in Comparative Example 1, whose hydrochloride salt was used in the experiment). Before the start of experiments, the mice were allowed to adapt to the experimental environment for 72 h with free feeding and drinking water. The test drugs were administrated by intraperitoneal injection at a dosage as follows:
Compound I-1 group: blank vehicle (blank saline control), 0.1 mg/kg, 0.5 mg/kg, 1 mg/kg, 5 mg/kg and 10 mg/kg;
S-duloxetine group: blank vehicle (blank saline control), 1 mg/kg, 5 mg/kg, 10 mg/kg and 20 mg/kg;
Compound C1 group: blank vehicle (blank saline control), 0.1 mg/kg, 0.5 mg/kg, 1 mg/kg, 5 mg/kg and 10 mg/kg.
After administration, the mice were placed in a transparent, ventilated plexiglass cylinder for 1 h, and then 20 μl of 4% formalin solution was injected into the left hind plantar of mice of each group by microinjector, claw pain response in mice were real-time recorded by a mini-camera. The time length of licking left claw were used as an indicator of pain response, licking time in 0-10 min (phase I) and 10-60 min (phase II) were observed and recorded, and the statistical analysis was conducted. The half effective dose (ED50) of 3 compounds were calculated: ED50 referred to the dose of the drug which decreased licking time by half as compared with the blank control group. The smaller the ED50 value was, the lower the effective analgesic dose of the compound was and the better the analgesic effect was.

CNCC[C@@H](Oc1cccc2ccoc12)c1ccco1 [Compound I-8, (R)-3-(benzofuran-7-yloxy)-3-(furan-2-yl)-N-methylpropyl-1-amine]
IC50 (TRPA1): 1 to 5 µM

NCC[C@@H](Oc1cccc2ccoc12)c1cccs1 [Compound I-2, (R)-3-(benzofuran-7-yloxy)-3-(thiophen-2-yl)propyl-1-amine]
IC50 (TRPA1): 6 to 10 µM

CN1[C@H]2C[C@H](OC(=O)[C@H](CO)c3ccccc3)C[C@@H]1[C@@H](O)C2 [anisodamine]
number of appearance of writhing reactions (visceral pain) within 30 min (ICR mice): 27 times

CN(C)CC[C@@H](Oc1cccc2ccoc12)c1cccs1 [Compound I-3, (R)-3-(benzofuran-7-yloxy)-N,N-dimethyl-3-(thiophen-2-yl)propyl-1-amine]
IC50 (TRPA1): 1 to 5 µM

C[C@H]1CCCN1c1ccc(-c2csc(NC(=O)Cn3cnc4c3c(=O)n(C)c(=O)n4C)n2)cc1F [Compound of formula A]
IC50 (TRPA1): 51 to 100 µM

CNCC[C@@H](Oc1cccc2ccoc12)c1ccsc1 [Compound I-5, (R)-3-(benzofuran-7-yloxy)-N-methyl-3-(thiophen-3-yl)propyl-1-amine]
IC50 (TRPA1): 1 to 5 µM

CCNCC[C@@H](Oc1cccc2ccoc12)c1cccs1 [Compound I-4, (R)-3-(benzofuran-7-yloxy)-N-ethyl-3-(thiophen-2-yl)propyl-1-amine]
IC50 (TRPA1): 1 to 5 µM

NCC1(CC(=O)O)CCCCC1 [Gabapentin, gabapentin]
PWT(g), claw withdrawal threshold (SD rats): 6.352 ± 1.897 g | MPE % (Sprague-Dawley rats; 0.5 h after administration, 100 mg/kg intraperitoneal): 6.47 ± 5.49% | MPE % (Sprague-Dawley rats; 1 h after administration, 100 mg/kg intraperitoneal): 14.56 ± 6.18% | MPE % (Sprague-Dawley rats; 2 h after administration, 100 mg/kg intraperitoneal): 22.66 ± 4.93%

CNCC[C@H](Oc1cccc2ccoc12)c1cccs1 [Compound C1, (S)-3-(benzofuran-7-yloxy)-N-methyl-3-(thiophen-2-yl)propyl-1-amine]
MPE % (Sprague-Dawley rats; 0.5 h after administration, 30 mg/kg intraperitoneal, hydrochloride salt): 5.29 ± 1.56% | MPE % (Sprague-Dawley rats; 1 h after administration, 30 mg/kg intraperitoneal, hydrochloride salt): 14.20 ± 5.71% | MPE % (Sprague-Dawley rats; 2 h after administration, 30 mg/kg intraperitoneal, hydrochloride salt): 21.83 ± 2.45% | Licking claw time (s) in phase II (10-60 min) (C57BL/6 mice; 0.1 mg/kg intraperitoneal): 339.35 ± 27.90 s | Licking claw time (s) in phase II (10-60 min) (C57BL/6 mice; 0.5 mg/kg intraperitoneal): 368.16 ± 44.46 s | Licking claw time (s) in phase II (10-60 min) (C57BL/6 mice; 1 mg/kg intraperitoneal): 171.57 ± 39.69 s | Licking claw time (s) in phase II (10-60 min) (C57BL/6 mice; 5 mg/kg intraperitoneal): 158.02 ± 25.18 s | Licking claw time (s) in phase II (10-60 min) (C57BL/6 mice; 10 mg/kg intraperitoneal): 35.68 ± 11.77 s

CNCC[C@@H](Oc1cccc2ccoc12)c1ccc(C)s1 [Compound I-6, (R)-3-(benzofuran-7-yloxy)-N-methyl-3-(5-methylthiophen-2-yl)propyl-1-amine]
IC50 (TRPA1): 6 to 10 µM

CNCC[C@@H](Oc1cccc2ccoc12)c1ccccc1 [Compound C2, (R)-3-(benzofuran-7-yloxy)-N-methyl-3-phenylpropyl-1-amine]
IC50 (TRPA1): 11 to 20 µM

CNCC[C@@H](Oc1cccc2c1CCC2)c1cccs1 [Compound I-9, (R)-3-((2,3-dihydro-1H-inden-4-yl)oxy)-N-methyl-3-(thienyl-2yl)propyl-1-amine]
IC50 (TRPA1): 6 to 10 µM

CNCC[C@@H](Oc1cccc2ccccc12)c1cccs1 [R-duloxetine]
IC50 (TRPA1): 21 to 50 µM

CNCC[C@@H](Oc1cccc2occc12)c1cccs1 [Compound I-11, (R)-3-(benzofuran-4-yloxy)-N-methyl-3-(thiophen-2-yl)propyl-1-amine]
IC50 (TRPA1): 6 to 10 µM

COc1ccc2c(c1)c(CC(=O)O)c(C)n2C(=O)c1ccc(Cl)cc1 [indomethacin]
number of appearance of writhing reactions (visceral pain) within 30 min (ICR mice): 28 times
